Literature values as cited in US20260167972A1, “AMINO ACID DERIVATIVES AS NOVEL DELIVERY AGENTS FOR FUNCTIONAL DELIVERY OF OLIGONUCLEOTIDES” (University of Rochester, priority 2022, published 2026).
Entries after “also recorded” stand apart in the source; their conditions may differ.

Tested on: human A549 lung adenocarincoma cells
Conditions: cyclic peptide complexed with Rh-siRNA; compared with naked Rh-siRNA; cited from earlier work

Ac-C(WR)4CG-NH2
Rh-siRNA cellular/cytosolic delivery: improved Rh-siRNA cellular delivery compared with naked Rh-siRNA; also recorded: significantly enhanced cytosolic delivery of Rh-siRNA

Ac-C(FKFE)2CG-NH2
Rh-siRNA cellular/cytosolic delivery: improved Rh-siRNA cellular delivery compared with naked Rh-siRNA
